Laboratory results reported in the CheMixHub ionic liquid set.
± gives the uncertainty stated by the source.

Test: xn = mol fraction of the nth substance listed

CCC(C)O (stereo not drawn) + CC[n+]1ccn(C)c1.N#C[N-]C#N
100 kPa, x2 = 0
Conditions	viscosity [mPa·s]
298.15 K	3.01 ± 0.6
303.15 K	2.55 ± 0.51
308.15 K	2.21 ± 0.44
313.15 K	1.97 ± 0.39
318.15 K	1.79 ± 0.36
323.15 K	1.63 ± 0.33

C[N+](C)(C)CCC[n+]1ccccc1.N#C[N-]C#N.N#C[N-]C#N + CCO
viscosity [mPa·s], 100 kPa
Conditions	x1 = 0.0999	x1 = 0.2001	x1 = 0.3002	x1 = 0.3999	x1 = 0.5002	x1 = 0.6001	x1 = 0.7003	x1 = 0.7998	x1 = 0.8995	x1 = 1
293.15 K	6.55 ± 0.66	15.6 ± 1.6	38 ± 3.8	75.8 ± 7.7	137 ± 14	243 ± 27	391 ± 46	614 ± 78	1038 ± 140	2191 ± 340
303.15 K	5.09 ± 0.51	11.8 ± 1.2	25.6 ± 2.6	49.2 ± 4.9	88.3 ± 9	138 ± 14	205 ± 22	291 ± 33	435 ± 52	830 ± 110
313.15 K	4.23 ± 0.43	9.28 ± 0.93	20.7 ± 2.1	34.4 ± 3.5	58.2 ± 5.8	84.3 ± 8.5	119 ± 12	161 ± 17	229 ± 25	386 ± 46
323.15 K	3.55 ± 0.36	7.47 ± 0.75	15.7 ± 1.6	25.2 ± 2.5	38.9 ± 3.9	56.2 ± 5.6	75.8 ± 7.6	99 ± 10	134 ± 14	210 ± 23
333.15 K	3.1 ± 0.31	6.12 ± 0.62	11.9 ± 1.2	18 ± 1.8	28 ± 2.8	39.6 ± 4	51.4 ± 5.1	65.1 ± 6.5	85.3 ± 8.6	127 ± 13

CCCC[N+]1(C)CCCCC1.F[P-](F)(F)(F)(F)F + CCCC[N+]1(C)CCCC1.F[P-](F)(F)(F)(F)F
102 kPa
Conditions	viscosity [mPa·s]
353.15 K, x1 = 0.5	154 ± 16
383.15 K, x1 = 0.3	41 ± 4

C[NH+](C)CCC=C1c2ccccc2CCc2ccccc21.[Cl-] + CCCC[n+]1ccn(C)c1.[Cl-] + O
electrical conductivity [S/m], 100 kPa
Conditions	298 K	303 K	308 K	313 K	318 K
x2 = 0.00018, x1 = 0.0007057	0.498 ± 0.06	0.501 ± 0.06	0.511 ± 0.06	0.509 ± 0.06	0.527 ± 0.061
x2 = 0.00018, x1 = 0.0007396	0.512 ± 0.06	0.519 ± 0.06	0.535 ± 0.06	0.522 ± 0.06	0.55 ± 0.06
x2 = 0.00018, x1 = 0.000773	0.524 ± 0.06	0.533 ± 0.06	0.538 ± 0.06	0.536 ± 0.061	0.564 ± 0.06
x2 = 0.00018, x1 = 0.0008057	0.543 ± 0.061	0.55 ± 0.06	0.551 ± 0.06	0.561 ± 0.061	0.581 ± 0.06
x2 = 0.00018, x1 = 0.0008382	0.56 ± 0.06	0.564 ± 0.06	0.566 ± 0.06	0.57 ± 0.06	0.595 ± 0.061
x2 = 0.00018, x1 = 0.0008701	0.569 ± 0.06	0.578 ± 0.06	0.58 ± 0.061	0.587 ± 0.061	0.613 ± 0.061
x2 = 0.00018, x1 = 0.0009016	0.579 ± 0.06	0.589 ± 0.06	0.597 ± 0.061	0.602 ± 0.061	0.629 ± 0.061
x2 = 0.00018, x1 = 0.0009322	0.591 ± 0.06	–	0.611 ± 0.061	0.62 ± 0.061	–
x2 = 0.0001801, x1 = 8.875e-05	0.189 ± 0.06	0.186 ± 0.06	0.193 ± 0.06	0.19 ± 0.06	0.188 ± 0.06
x2 = 0.0001801, x1 = 0.0001104	0.201 ± 0.06	0.198 ± 0.06	0.203 ± 0.06	0.202 ± 0.06	0.202 ± 0.06
x2 = 0.0001801, x1 = 0.0001321	0.215 ± 0.06	0.209 ± 0.06	0.216 ± 0.06	0.212 ± 0.06	0.21 ± 0.06
x2 = 0.0001801, x1 = 0.0001534	0.227 ± 0.06	0.223 ± 0.06	0.228 ± 0.06	0.224 ± 0.06	0.224 ± 0.06
x2 = 0.0001801, x1 = 0.0001747	0.24 ± 0.06	0.235 ± 0.06	0.239 ± 0.06	0.238 ± 0.06	0.235 ± 0.06
x2 = 0.0001801, x1 = 0.0001956	0.251 ± 0.06	0.248 ± 0.06	0.247 ± 0.06	0.249 ± 0.06	0.249 ± 0.06
x2 = 0.0001801, x1 = 0.0002165	0.272 ± 0.06	0.27 ± 0.06	0.274 ± 0.06	0.259 ± 0.06	0.26 ± 0.06
x2 = 0.0001801, x1 = 0.0002578	0.293 ± 0.06	0.288 ± 0.06	0.293 ± 0.06	0.277 ± 0.06	0.285 ± 0.06
x2 = 0.0001801, x1 = 0.0002984	0.313 ± 0.06	0.306 ± 0.06	0.315 ± 0.06	0.301 ± 0.06	0.31 ± 0.06
x2 = 0.0001801, x1 = 0.0003383	0.328 ± 0.06	0.328 ± 0.06	0.335 ± 0.06	0.321 ± 0.06	0.332 ± 0.06
x2 = 0.0001801, x1 = 0.0003776	0.348 ± 0.06	0.345 ± 0.06	0.353 ± 0.06	0.34 ± 0.06	0.351 ± 0.06
x2 = 0.0001801, x1 = 0.0004164	0.365 ± 0.06	0.368 ± 0.06	0.37 ± 0.06	0.357 ± 0.06	0.374 ± 0.06
x2 = 0.0001801, x1 = 0.0004544	0.385 ± 0.06	0.383 ± 0.06	0.388 ± 0.06	0.381 ± 0.06	0.392 ± 0.06
x2 = 0.0001801, x1 = 0.0004919	0.406 ± 0.06	0.401 ± 0.06	0.407 ± 0.06	0.397 ± 0.06	0.413 ± 0.06
x2 = 0.0001801, x1 = 0.0005289	0.42 ± 0.06	0.416 ± 0.06	0.427 ± 0.06	0.42 ± 0.06	0.431 ± 0.06
x2 = 0.0001801, x1 = 0.0005653	0.437 ± 0.06	0.435 ± 0.06	0.44 ± 0.06	0.433 ± 0.06	0.455 ± 0.06
x2 = 0.0001801, x1 = 0.0006012	0.451 ± 0.06	0.452 ± 0.06	0.46 ± 0.06	0.457 ± 0.06	0.471 ± 0.06
x2 = 0.0001801, x1 = 0.0006365	0.469 ± 0.06	0.469 ± 0.06	0.476 ± 0.06	0.472 ± 0.06	0.493 ± 0.06
x2 = 0.0001801, x1 = 0.0006715	0.485 ± 0.06	0.485 ± 0.06	0.496 ± 0.06	0.491 ± 0.06	0.51 ± 0.06
x2 = 0.0001802, x1 = 2.245e-05	0.15 ± 0.06	–	0.147 ± 0.06	0.156 ± 0.06	0.152 ± 0.06
x2 = 0.0001802, x1 = 4.474e-05	0.165 ± 0.06	0.159 ± 0.06	0.162 ± 0.06	0.167 ± 0.06	0.163 ± 0.06
x2 = 0.0001802, x1 = 6.683e-05	0.177 ± 0.06	0.174 ± 0.06	0.182 ± 0.06	0.179 ± 0.06	0.176 ± 0.06

C[N+](C)(C)CCC[n+]1ccccc1.N#C[N-]C#N.N#C[N-]C#N + CC#N
100 kPa
Conditions	viscosity [mPa·s]
283.15 K, x1 = 0.7001	857 ± 95
288.15 K, x1 = 0.8997	1336 ± 150
288.15 K, x1 = 1	3879 ± 480
293.15 K, x1 = 0.1999	10.8 ± 1.1
293.15 K, x1 = 0.3997	75.8 ± 7.7
293.15 K, x1 = 1	2191 ± 260
298.15 K, x1 = 0.8997	561 ± 61
303.15 K, x1 = 0.0999	3 ± 0.3
303.15 K, x1 = 0.2998	24.3 ± 2.5
303.15 K, x1 = 0.7998	271 ± 28
308.15 K, x1 = 0.1999	7.71 ± 0.78
318.15 K, x1 = 0.2998	16 ± 1.6
323.15 K, x1 = 0.0999	2.43 ± 0.24
323.15 K, x1 = 1	210 ± 22
333.15 K, x1 = 0.1999	5.08 ± 0.51
333.15 K, x1 = 0.6002	37.6 ± 3.8

c1c[nH]cn1 + CC[n+]1ccn(C)c1.[Cl-]
298.2 K, 100 kPa
Conditions	viscosity [mPa·s]
x2 = 0.25	38.7 ± 1.4
x2 = 0.5	82.5 ± 4.7
